The values below come from patent US6355677B1, “Adrenoleukodystrophy treatments and drug screening” (The Johns Hopkins University, priority 1998, dated 2002).

Assay [1] deals with Pex11α. Briefly: Semi-quantitative RT-PCR, mouse primary fibroblasts. In kind it is cell-based. The conditions noted are these: normal or X-ALD mouse fibroblasts, 10 day exposure to 5 mM; data not shown. As to the method:
(§1) Total RNA from tissue culture cells (10^6-10^7 cells/sample) was isolated using TRizol Reagent™ (Life Technologies), treated with DNase I (100-200 units in 40 mM HC, 10mM NaC, 6 mM MgCl2, pH 7.3), incubated at 37° C. for 30 min, extracted with pheno/chloroform, and precipitated with isopropanol. cDNA was generated using MMLV reverse transcriptase (RT) (Life Technologies). PCR was done in the linear range of amplification (determined for each primerpair-cDNA combination). For each cDNA sample, a ‘cocktail’ was prepared, containing PCR buffer (Promega), 200 µM of each DNTP, 1.5 mM MgCl2, 250 ng cDNA, 0.25 U of Taq polymerase (Promega) and […]. The ‘cocktail’ was divided into separate tubes containing cDNA specific primers.
(§2) The PCR primers used are listed below. In the parentheses, h indicates human and m, mouse; this is followed by the gene name, product size and annealing temperature. For primer sequences, F is forward and R is reverse. […]

Assay [2] has as its system PPARα. The assay is described as above. It is filed as cell-based. The conditions noted are these: mouse X-ALD fibroblasts, 5 mM, 2 days. As to the method:
as §1, §2

In another assay the test system is X-ALD mice. Briefly: In vivo efficacy: VLCFA levels in brain and adrenal glands after dietary treatment. Details: species or system mouse. As to the method:
To measure the in vivo efficacy of 4-PBA, we supplemented mouse chow and water with 4-PBA.
In vivo delivery of 4-PBA to X-ALD mice. 4-PBA was delivered to X-ALD mice in their regular chow and water. 4-PBA chow was prepared by B'OServ (Holton Industries, Frenchtown, N.J.). […] Brains and adrenal glands from normal LD and X-ALD/4-PBA mice were collected for VLCFA analysis as described.

The subject of assay [3] is Pex11α. As to the kind of experiment: Semi-quantitative RT-PCR, human primary fibroblasts. It is filed as cell-based. To be noted: 5 mM, 2 days. On the procedure: as §1, §2
Assay [4] deals with PPARα. Described as above. It is filed as cell-based. The conditions noted are these: human X-ALD fibroblasts, 5 mM, up to 10 days. As to the method: as §1, §2
Where [5] appears, read: dietary 4-PBA (about 70 mg per day), 6 weeks.

“And” between values parts separate entries of the source, which are not always exact repeats. Identical values can stand only once. “Also recorded” adds a separate entry of the source.

For `O=C(O)CCCc1ccccc1` [4-PBA, 4-Phenyl butyrate], in the assay on Pex11α [1], the Pex11α transcripts result is listed as “undetectable”. Further, the PPARα expression entry in the assay on PPARα [2] is reported as “increased”. Besides, in the assay with X-ALD mice (setting [5]), the “Correction of brain C24:0” value was “complete correction; also recorded: complete normalization”; the “Correction of brain C26:0” value is 78% and 80%. In the assay on X-ALD mice (dietary 4-PBA, 4 weeks), the “Adrenal gland VLCFA (C24:0 and C26:0) levels” value is listed as “substantial reduction”; the “Brain VLCFA (C24:0 and C26:0) levels” value is “substantial reduction”. Besides, the Pex11α expression result in the assay on Pex11α [3] was “substantially increased; also recorded: substantial increase”. Also, the PPARα expression entry with PPARα [4] is recorded as “unchanged”.
